Values of other authors in patent publication US8652520B2, “Combination tablet with chewable outer layer” (Vitalis LLC, priority 2007, dated 2014).

What was measured:
[1] = risk of bleeding peptic ulcer, literature
[2] = tested on: anti-platelet activity of aspirin; conditions: co-administered with aspirin, literature

Row | SMILES | GI side effects among the NSAID agents [1] | anti-platelet activity of aspirin when given in conjunction [2]
1 | O=C(O)Cc1ccccc1Nc1c(Cl)cccc1Cl [diclofenac] | least GI side effects | 
2 | CC(C)Cc1ccc(C(C)C(=O)O)cc1 (stereo not drawn) [ibuprofen, 2-[4-(2-methylpropyl)phenyl]propanoic acid] | least GI side effects | decreased
